Data from patent publication US20170119742A1, “MEDICAMENT FOR PREVENTING AND/OR TREATING STRESS DISEASES” (ONO PHARMACEUTICAL CO., LTD., priority 2014, published 2017).

How the values were obtained:
[1] = tested on: fear conditioning stress rats; assay: Antianxiety effect (1): freezing time in fear conditioning stress rats; type: in vivo; conditions: rat, 1 and 3 mg/kg oral, 2 h before 30 min stress load, Dunnett test
From the text: Male Crj: CD (SD) rats (Charles River Laboratories Japan, Inc., at the time of evaluation: 8 weeks old) were used to load conditioned fear stress in accordance with Funatsu et al. method (European Journal of Pharmacology, Vol. 573, p. 190-195, 2007). The day before of fear conditioning, the rat was put in an electric shock device which was placed in a soundproof box to acclimate to the evaluation environment. The day of fear conditioning, the rat was put in the electric shock device. The conditioning, 5 seconds electric current load (2.0 mA) and light irradiation (3 pieces of 40 W fluorescent bulbs) followed by 3 seconds warning sound (60 to 70 db), was carried out a total 15 times at 1 minute intervals. The rat of the non-stressed group was given a warning sound and light irradiation without performing the electric current load during fear conditioning. The day after the fear conditioning, the vehicle (0.5 w/v % methylcellulose 400 cP solution) or the compound of the present invention (0.3, 1 or 3 mg/kg) was orally administered to the rat. Two hours after the administration, the rat was put in the electric shock device. […] The behavior of the rat was photographed with a video camera during the 30 minutes of stress load and freezing time was measured.

[2] = Plasma concentration in monkeys (ex vivo occupancy study); conditions: male, rhesus monkey, once on day 4
Protocol: The vehicle (0.5 w/v % methylcellulose 400 cP solution) or the compound of the present invention (0.4 or 1 mg/kg) was orally administered twice daily for 3 days, once on day 4 to male rhesus monkeys (Shin Nippon Biomedical Laboratories, Ltd., at the time of use: 4 to 6 kg). After 2 hours of the final administration, in the same manner as Biological example 1, brain TSPO occupancy of the compound of the present invention relative to the specific binding of the vehicle control group was measured by measuring the specific binding amount of [3H] PBR28 on brain (anterior cingulate cortex, caudate nucleus, amygdala, hippocampus and occipital lobe) homogenates (n=3 in vehicle control group, n=5 in each the compound of the present invention treated group). As a result, the average TSPO occupancy of brain 5 sites was 37.9 and 56.6% in 0.4 and 1 mg/kg group of the compound of the present invention. The average plasma concentration of the compound of the present invention was 23.9 and 154 ng/mL in 0.4 and 1 mg/kg group.

brain TSPO = molecular target: T1, brain TSPO (Homo sapiens, UniProt P30536); assay: Brain occupancy using PET in humans (2), different analytical method, Bmax fixed to 1; type: in vivo; conditions: [11C] PBR28, Emax model with Bmax fixed to 1, mean plasma concentration, SAS, read-out: Ki, blood concentration which can be achieved 50% Bmax (converted)
T1 construct: from tissue; host or cells: living human brain (PET, healthy adults)
Protocol: The data in Biological example 8 were analyzed in a different analytical method. Brain occupancy, relative to the binding potential (BP) before administration, was calculated by calculating the BP of each interest area from the brain radioactivity concentration time change of [^11C] PBR28, nonspecific binding amount and arterial blood plasma radioactivity which was corrected in a non-metabolic rate (n=3 to 4 in each group). Further, the average TSPO occupancy of all interest areas was determined from the Lassen plot that obtained by the horizontal axis of the distribution volume before administration (Vt baseline) and the vertical axis of the value obtained by subtracting the distribution volume after administration from the distribution volume before the administration (Vt baseline−Vt onmed) for each interest area. […] As parameters in this model, Bmax (a maximum number of binding) and Ki (ng/mL) (a blood concentration which can be achieved 50% Bmax) were used. Bmax was fixed to 1 in this analysis, and SAS Version 9.2 (SAS Institute) was used as an analysis software. Parameters and formula of Emax model were shown in the following.
TSPO Occupancy (%)=Bmax×Cave/(Ki+Cave)×100
Cave=Mean plasma concentration (ng/mL)

T1 sequence (P30536 whole entry): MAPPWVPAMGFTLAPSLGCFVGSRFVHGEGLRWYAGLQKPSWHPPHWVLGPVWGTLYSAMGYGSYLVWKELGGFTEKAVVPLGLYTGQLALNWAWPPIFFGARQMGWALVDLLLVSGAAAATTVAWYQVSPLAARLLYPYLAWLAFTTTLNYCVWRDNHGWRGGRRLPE

concentration at 2 h ([2]; 0.4 mg/kg oral twice daily 3 days): 23.9 ng/mL
concentration at 2 h ([2]; 1 mg/kg oral twice daily 3 days): 154 ng/mL
Ki (brain TSPO): 34.1 nM
Structure (SMILES): COc1cc(Cl)ccc1[C@H]1c2[nH]c3cccc(F)c3c2C2(CC2)CN1C(C)=O [the compound of the present invention, (1S)-2-acetyl-1-(4-chloro-2-methoxyphenyl)-5-fluoro-1,2,3,9-tetrahydrospiro[β-carboline-4,1′-cyclopropane]]
freezing time vs. vehicle control group [1]: shortened this extended freezing time significantly
